We go through 96 sequences from PMC12057046, “Elucidation of short linear motif-based interactions of the MIT and rhodanese domains of the ubiquitin-specific protease 8” (Biology Direct, 2025).

One test relates to USP8 MIT domain. Briefly: Peptide-phage display-based deep mutational scanning (DMS), USP8 MIT domain. Type of test: binding, human. Conditions: bait USP8_MIT__P40818_1_142; EFCAB12 (Q6NXP0) 2-17; pair of mutant with wild-type wt_00016 (MDDDYEAYHSLFLSLL); sheet S3.B_ProP-PD_pairs. As to the method: The residues of these 16 amino acid-long wild-type peptides were substituted to all natural amino acid residues, except cysteine, in all positions (Supplementary Table S2A). The designed peptide sequences were reverse-translated to oligonucleotides optimized to the codon usage of E. coli. The required flanking regions (5´[…] and 3´[…]) were added for library construction. The library was generated as previously described.
Four rounds of phage selections were carried out using the second generation human disorderome library or the constructed deep mutational scanning library. At least three individual replicates were used for each bait protein. 10 µg of GST-tagged proteins or GST control (diluted in PBS from the stock of proteins kept in the purification elution buffer) were immobilized in 100 µL PBS on a 96-well MaxiSorp (Nunc) plate overnight at 4 °C. The plates were incubated with blocking buffer (with 0.5% BSA in PBS) for 1 h at 4 °C followed by washing with 0.05% Tween 20 in PBS four times. The naïve phage library (10^11 CFU) was diluted in 1/5th volume PEG/NaCl (20% PEG-8000, 0.4 M NaCl) and 1X PBS, incubated on ice for 10 min and centrifuged at 10,000 [drawing 3] g for 10 min. The pellet was resuspended in the volume of PBS (100 µL/ well). The GST-coated control plate was incubated with 100 µL library per well in PBS for 1 h at 4 °C to remove non-specific binders. The supernatant was transferred to the target wells and incubated for 2 h at 4 °C. The wells were washed five times with 0.05% Tween 20 in PBS and the bound phages were eluted with 100 µL per well log-phase E. coli OmniMAX by incubating at 37° C while shaking. After 30 min, M13KO7 helper phages were added and incubated for an additional 45 min. The bacterial cultures were transferred to 1 mL 2YT supplemented with 100 µg/mL carbenicillin, 30 µg/mL kanamycin and 0.3 mM IPTG and grew overnight at 37 °C while shaking. The following day the cultures were centrifuged for 10 min at 2,000 [drawing 4] g, 4 °C. 1/10th volume of 10 [drawing 5] PBS was added to adjust the pH and heated at 65 °C for 10 min. The phage pools from each round were used as in-phages for the next round of selections.
The samples were prepared for NGS as previously described. Peptide-coding regions of the enriched phage pools were amplified and barcoded using Phusion High-Fidelity PCR Master Mix (Thermo Fisher) for 22 cycles and confirmed by 2% agarose gel electrophoresis. The PCR products were normalized with 25 µL Mag-bind Total Pure NGS beads (Omega Biotek) and 10 µL of each eluted sample (Qiagen Elution Buffer) was pooled and cleaned-up with a PCR purification kit (Qiagen). The PCR product was confirmed by 2% agarose electrophoresis and the band was extracted with QIAquick Gel extraction Kit (Qiagen) and eluted with 30 µL TE buffer. The dsDNA was quantified using QuantiT PicoGreen dsDNA Assay Kit (Thermo Fisher) and sent for NGS (Illumina MiSeq v3, 1 × 150 bp read setup, 20% PhiX, NGI SciLifeLab facility, Sweden). The NGS data were demultiplexed, adapter regions were trimmed and sequences with an average quality of at least 20 were translated to peptide sequences. The NGS data were analysed using custom Python scripts. The total read NGS counts for each selection experiment of each peptide sequence were compiled and annotated in PepTools (https://slim.icr.ac.uk/tools/peptools/). Since ProP-PD is in essence a competition assay, the possibility of the input phage library influencing the selection outcome was explored. For this, the Pearson correlation coefficient, p-value and coefficient of determination were calculated for all peptide NGS count fractions in the library coverage vs. in the selections results (Supplementary Fig. S7; Supplementary Table S2B; Supplementary Table S3B; Supplementary Table S7B). Pearson correlation coefficient and p-value were calculated using Python’s SciPy library. […]
Regarding NDDDYEAYHSLFLSLL [mut_04330], the hit_pair_ratio is 17.85. For the sequence MDDDYEEYHSLFLSLL [mut_04430], the hit_pair_ratio is 4.58. With MDDNYEAYHSLFLSLL [mut_04384], the hit_pair_ratio came to 33.79. The sequence MDDDYTAYHSLFLSLL [mut_04425] returned a hit_pair_ratio of 48.27.

Take MDEDYEAYHSLFLSLL [mut_04358]: the hit_pair_ratio was 3.08. MEDDYEAYHSLFLSLL [mut_04340] registered a hit_pair_ratio of 16.11. On to MYDDYEAYHSLFLSLL [mut_04356], for which the hit_pair_ratio was 67.58. For the sequence MDDDWEAYHSLFLSLL [mut_04410], the hit_pair_ratio was determined as 56.54.

In turn, MDVDYEAYHSLFLSLL [mut_04372] displayed a hit_pair_ratio of 7.68. In the case of MDQDYEAYHSLFLSLL [mut_04368], the hit_pair_ratio was 8.05. The sequence MDDDAEAYHSLFLSLL [mut_04393] showed a hit_pair_ratio of 42.41. Same read-out and setting: the result for MDDDYAAYHSLFLSLL [mut_04411] reads 3.89; that for MDDDYIAYHSLFLSLL [mut_04416], 56.54. For the sequence MDDDYESYHSLFLSLL [mut_04442], the hit_pair_ratio came out at 37.68. The sequence TDDDYEAYHSLFLSLL [mut_04335] returned a hit_pair_ratio of 30.76. As to MDDQYEAYHSLFLSLL [mut_04386], the hit_pair_ratio was found to be 42.28. Still for that read-out and setting: the result for MDDDYYAYHSLFLSLL [mut_04428] reads 1.20; that for MDDDYEIYHSLFLSLL [mut_04434], 18.85. In turn, MKDDYEAYHSLFLSLL [mut_04345] returned a hit_pair_ratio of 25.99.

As to MGDDYEAYHSLFLSLL [mut_04342], the hit_pair_ratio came to 337.92. The sequence FDDDYEAYHSLFLSLL [mut_04324] yielded a hit_pair_ratio of 112.64. For the sequence MDDDYMAYHSLFLSLL [mut_04419], the hit_pair_ratio was 112.64. For the sequence MDTDYEAYHSLFLSLL [mut_04371], the hit_pair_ratio was 112.94.

Sequence MDDLYEAYHSLFLSLL [mut_04382] came in with a hit_pair_ratio of 337.92. For the sequence MDLDYEAYHSLFLSLL [mut_04364], the hit_pair_ratio is recorded as 2.51. MDDDGEAYHSLFLSLL [mut_04397] came in with a hit_pair_ratio of 12.55. Still for that read-out and setting: the result for MDDKYEAYHSLFLSLL [mut_04381] reads 84.82.

MDDDYWAYHSLFLSLL [mut_04427] yielded a hit_pair_ratio of 2.20.

On to MFDDYEAYHSLFLSLL [mut_04341], for which the hit_pair_ratio was found to be 4.97. Take MDDDYEKYHSLFLSLL [mut_04435]: the hit_pair_ratio came out at 48.44. Same read-out and setting: the result for MDDDYDAYHSLFLSLL [mut_04412] reads 12.14; that for MADDYEAYHSLFLSLL [mut_04339], 13.05. Sequence MDADYEAYHSLFLSLL [mut_04357] had a hit_pair_ratio of 1.08. Regarding MQDDYEAYHSLFLSLL [mut_04350], the hit_pair_ratio came to 169.63.

The test is the same for the next values; noted with them: bait USP8_MIT__P40818_1_142; MLPH 482-497; ratio of averaged fractions of wild-type/mutant peptide pair, larger over smaller (direction to be read from the two fractions).
With SEVSDIKSRIAALRAA, the hit_pair_ratio stood at 3.89. Turning to SEVSDIESRIAMLRAA, the hit_pair_ratio stood at 1.77. SEVSDIESRIAALRAI: the hit_pair_ratio is listed as 17.25.

As for SEVSDIEERIAALRAA, the hit_pair_ratio turned out to be 7.79. As for SEVSDIESRIAAARAA, the hit_pair_ratio turned out to be 3.89. Consider SEVSDHESRIAALRAA, for which the hit_pair_ratio is reported as 1.54. For SEVSDIESRIAALHAA, the hit_pair_ratio is listed as 1.15. On the same count and under the same terms, the result for SEVSDIESRIAASRAA reads 1.95; that for SEVSDIESRIAALREA, 7.79.

With SEVSDIESRIKALRAA, the hit_pair_ratio amounted to 3.89. Take SEVSDIESREAALRAA: the hit_pair_ratio turned out to be 3.89. With SEVSNIESRIAALRAA, the hit_pair_ratio is reported as 3.89.

Take SEVGDIESRIAALRAA: the hit_pair_ratio was determined as 2.28. As for SEVSDIESRIAALRAM, the hit_pair_ratio is 108.17. Turning to SEVMDIESRIAALRAA, the hit_pair_ratio stood at 4.36. On the same count and under the same terms, the result for SEVSDFESRIAALRAA reads 49.08; that for SEVSDIESRIAALRNA, 7.79; that for SEVFDIESRIAALRAA, 1.56.

Consider SEVSDIESRIEALRAA, for which the hit_pair_ratio turned out to be 2.26. Consider SEVSDIESRIAATRAA, for which the hit_pair_ratio worked out at 7.79. As to SEVSDITSRIAALRAA, the hit_pair_ratio is recorded as 1.11.

With SEVSDRESRIAALRAA, the hit_pair_ratio amounted to 2.60. On to SEVSDIEPRIAALRAA, for which the hit_pair_ratio came out at 7.79.

On to SEVSDIESRIAALVAA, for which the hit_pair_ratio was found to be 18.10.

The test is the same for the next values; noted with them: sheet S3.B_ProP-PD_pairs; bait USP8_MIT__P40818_1_142; ratio within the wild-type/mutant pair, larger over smaller averaged fraction (direction from fraction_wt and fraction_mut).
Turning to MDDDYEAYHSLALSLL, the hit_pair_ratio was determined as 337.92.

As for MDDDYEWYHSLFLSLL, the hit_pair_ratio is reported as 1.12. As for SELSDIESRIAALRAA, the hit_pair_ratio is listed as 11.85.

For TEVSDIESRIAALRAA, the hit_pair_ratio amounted to 6.74. As to MDDDYEAYASLFLSLL, the hit_pair_ratio is 5.54. Consider SPVSDIESRIAALRAA, for which the hit_pair_ratio was found to be 1.56.

MDDDYEAYHSLFVSLL: the hit_pair_ratio amounted to 37.55. Regarding SKVSDIESRIAALRAA, the hit_pair_ratio was found to be 3.89.

For MDDDYEAMHSLFLSLL, the hit_pair_ratio is reported as 337.92. Still for that read-out and setting: as for MDDDYEAYHTLFLSLL, the figure is 169.63; as for MDDDYEAYSSLFLSLL, 33.87. Take SEESDIESRIAALRAA: the hit_pair_ratio is listed as 7.79. Same read-out and setting: as for MDDDYEALHSLFLSLL, the figure is 56.39. MDDDYEASHSLFLSLL: the hit_pair_ratio is 112.64. Regarding MDDDYEAYHDLFLSLL, the hit_pair_ratio worked out at 11.69.

Take SEGSDIESRIAALRAA: the hit_pair_ratio is recorded as 7.79. The same measure, in the same setting: the result for MDDDYEAYHGLFLSLL reads 10.26.

As to QEVSDIESRIAALRAA, the hit_pair_ratio amounted to 2.44. On the same count and under the same terms, the result for MDDDYEAYHSLFLALL reads 2.81; that for MDDDYEAYKSLFLSLL, 84.48; that for MDDDYEAYHSIFLSLL, 10.94.

For the sequence LEVSDIESRIAALRAA, the hit_pair_ratio came out at 16.71.

Turning to SESSDIESRIAALRAA, the hit_pair_ratio is given as 3.89. In the case of MDDDYEAYHSLFLPLL, the hit_pair_ratio turned out to be 337.92. MDDDYEAYHSLFLNLL: the hit_pair_ratio was 33.93.

Consider MDDDYEAYHSLFLSGL, for which the hit_pair_ratio was 337.92. Still for that read-out and setting: the result for MDDDYEAYNSLFLSLL reads 169.63; that for SMVSDIESRIAALRAA, 7.79. MDDDYEAYHSLFLSRL: the hit_pair_ratio was determined as 337.92. In the case of FEVSDIESRIAALRAA, the hit_pair_ratio was 3.72. As for MDDDYEAYHSLFLSHL, the hit_pair_ratio is given as 84.48.

Turning to MDDDYEATHSLFLSLL, the hit_pair_ratio was 17.79. As to MDDDYEAYHQLFLSLL, the hit_pair_ratio turned out to be 337.92. For MDDDYEAYDSLFLSLL, the hit_pair_ratio is 337.92. With MDDDYEAYISLFLSLL, the hit_pair_ratio is 13.00.

With SEQSDIESRIAALRAA, the hit_pair_ratio came out at 5.24. MDDDYEAYYSLFLSLL: the hit_pair_ratio was determined as 24.06. As for MDDDYEAIHSLFLSLL, the hit_pair_ratio was 132.20.
